Source: patent publication US8426429B2, “2-amino-quinazoline derivatives useful as inhibitors of β-secretase (BACE)” (Jansssen Pharmaceutica N.V., priority 2004, dated 2013)

Molecular target: T1, β-secretase (BACE) (Homo sapiens, UniProt P56817)
T1 construct: purchased Panvera
Assay: BACE FS1 % Inhibition Assay
Type: biochemical
Method: The following reagents were used in this assay: sodium acetate, PEG8000 (Sigma), DMSO, HEPES, FS1 substrate [[…]] […] The FS1-substrate stock solution was prepared in DMSO as a 10 mg/mL solution. The FS1-substrate working solution was prepared by diluting the 10 mg/mL stock solution with substrate assay buffer to a final concentration of 300 μg/mL. The β-secretase (BACE) working solution was prepared by diluting a 0.83 mg/mL BACE stock solution with enzyme assay buffer to a final concentration of 4 μg/mL. Test compounds were dissolved in DMSO to 10 mM. […] The screening procedure for this assay was as follows: 15 μL of BACE working solution was pipetted into each well of a 96-well plate. To each well was then pipetted 2 μL of test compound at the selected concentration. Test compound and BACE were then mixed with a pipettor and incubated for 20 min at room temperature. To each well was then added 10 μL of the FS1 substrate working solution. The plates were then incubated for 1 hour at room temperature. […] The procedure for the blank was as follows. 15 μL of assay buffer was pipetted into each well to be used as a blank control. To each well was then added 2 μL of vehicle and 10 μL of FS1-substrate working solution. The plates were then incubated for 1 hour at room temperature. […] The procedure for the positive control was as follows: 15 μL of BACE working solution was pipetted into each well to be used as a positive control. To each well was then pipetted 2 μL of vehicle. Vehicle and BACE were then mixed with a pipettor and incubated for 20 min at room temperature. To each well was then added 10 μL of the FS1 substrate working solution. The plates were then incubated for 1 hour at room temperature. […] For test compounds, % inhibition was determined at each concentration as follows: [formula]

T1 sequence (P56817 46-501): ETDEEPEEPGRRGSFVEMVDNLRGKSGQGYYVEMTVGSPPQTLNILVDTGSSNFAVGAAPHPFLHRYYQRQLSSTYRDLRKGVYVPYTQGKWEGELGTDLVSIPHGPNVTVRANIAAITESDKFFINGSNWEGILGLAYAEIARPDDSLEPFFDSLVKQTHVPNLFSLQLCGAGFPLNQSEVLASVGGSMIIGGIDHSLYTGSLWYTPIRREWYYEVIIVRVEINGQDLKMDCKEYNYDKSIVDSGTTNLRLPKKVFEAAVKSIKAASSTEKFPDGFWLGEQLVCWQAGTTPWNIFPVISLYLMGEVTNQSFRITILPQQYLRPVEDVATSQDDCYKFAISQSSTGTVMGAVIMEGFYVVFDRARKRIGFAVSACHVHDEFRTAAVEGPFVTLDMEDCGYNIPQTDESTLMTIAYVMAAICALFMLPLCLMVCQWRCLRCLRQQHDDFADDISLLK

Structure (SMILES)	% Inhibition (FS) (3 μM test compound) [%]	% Inhibition (FS) (10 μM test compound) [%]	% Inhibition (FS) (0.3 μM test compound) [%]	% Inhibition (FS) (1 μM test compound) [%]	further results
COC(=O)C1CCCC(N(C)C(=O)CCC(C2CCCCC2)N2Cc3cc(Oc4ccccc4)ccc3N=C2N)C1 (mixture of isomers) [Compound 777]					% Inhibition (FS) (0.3 μM compound, FS1 substrate): 38%; % Inhibition (FS) (1 μM compound, FS1 substrate): 97%
CCCC(CCCC(=O)N(C)C1CCCCC1)N1Cc2cc(Oc3ccccc3)ccc2N=C1N (stereo not drawn) [Compound 90]	106	124			
CCCC(CCCC(=O)NC1CCCCC1)N1Cc2cc(Oc3ccccc3)ccc2N=C1N (stereo not drawn) [Compound 91]	68	117			
CCCC(CCCC(=O)N(C)C1CCN(C)CC1)N1Cc2cc(Oc3ccccc3)ccc2N=C1N (stereo not drawn) [Compound 106]	103	114			
NC1=Nc2ccc(Oc3ccccc3)cc2CN1CCCCNC(=O)C1CCCCC1 [Compound 115]	40	105			
NC1=Nc2ccc(Oc3ccccc3)cc2CN1CCCCNC(=O)C1CCCC1 [Compound 116]	39	81			
CN(C(=O)c1ccc2c(c1)C(N1Cc3cc(Oc4ccccc4)ccc3N=C1N)c1ccccc1-2)C1CCCCC1 (stereo not drawn) [Compound 118]					% Inhibition (FS) (3 μM test compound, 3 µM): 48%; % Inhibition (FS) (10 μM test compound, 10 µM): 91%
NC1=Nc2ccc(Oc3ccccc3)cc2CN1C1CCN(C(=O)C2CCCCC2)C1 (stereo not drawn) [Compound 119]	42	75			
NC1=Nc2ccc(Oc3ccccc3)cc2CN1C1CCN(C(=O)C2CCCC2)C1 (stereo not drawn) [Compound 120]	<30	34			
NC1=Nc2ccc(Oc3ccccc3)cc2CN1C1c2ccccc2-c2cccc(C(=O)N(C3CCCCC3)C3CCCCC3)c21 (stereo not drawn) [Compound 124]	56	67			
CCCC(CCC(=O)NC1CCCCCC1)N1Cc2cc(Oc3ccccc3)ccc2N=C1N (stereo not drawn) [Compound 128]	97	108			
CCCC(CCC(=O)NC1CCCCC1)N1Cc2cc(Oc3ccccc3)ccc2N=C1N (stereo not drawn) [Compound 129]	113	113			
NC1=Nc2ccc(Oc3ccccc3)cc2CN1C(c1ccccc1)c1cccc(C(=O)N(C2CCCCC2)C2CCCCC2)c1 (stereo not drawn) [Compound 132]	54	118			
CCCC(CCCC(=O)NC1CCCCCC1)N1Cc2cc(Oc3ccccc3)ccc2N=C1N (stereo not drawn) [Compound 137]	82	107			
NC1=Nc2ccc(Oc3ccccc3)cc2CN1CCNC(=O)C1CC1c1ccccc1 (stereo not drawn) [Compound 139]	<30	61			
CCCCCCCCCC(=O)NCCN1Cc2cc(Oc3ccccc3)ccc2N=C1N [Compound 142]	<30	38			
NC1=Nc2ccc(Oc3ccccc3)cc2CN1CCCNC(=O)C1CC1 [Compound 143]	<30	32			
NC1=Nc2ccc(Oc3ccccc3)cc2CN1CCCNC(=O)C1CCC1 [Compound 144]	39	59			
CN(C(=O)c1ccc2c(c1)C(N1Cc3cc(Oc4ccccc4)ccc3N=C1N)CC2)C1CCCCC1 (stereo not drawn) [Compound 145]	<30	37			
COc1ccc2c(c1)C(CC(=O)N(C)C1CCCCC1)CC2N1Cc2cc(Oc3ccccc3)ccc2N=C1N (stereo not drawn) [Compound 146]	<30	39			

Structure (SMILES)	% Inhibition (FS) (3 μM test compound) [%]	% Inhibition (FS) (10 μM test compound) [%]	% Inhibition (FS) (0.3 μM test compound) [%]	% Inhibition (FS) (1 μM test compound) [%]	further results
NC1=Nc2ccc(Oc3ccccc3)cc2CN1C1c2ccccc2-c2c(C(=O)N(C3CCCCC3)C3CCCCC3)cccc21 (stereo not drawn) [Compound 147]	<30	71			
CCCCCC(CCC(=O)NC1CCCCCC1)N1Cc2cc(Oc3ccccc3)ccc2N=C1N (stereo not drawn) [Compound 150]	90		<30	<30	
NC1=Nc2ccc(Oc3ccccc3)cc2CN1CCNC(=O)CCc1ccccc1 [Compound 155]	<30	49			
CC(C)(C)c1ccc(C(=O)NCCN2Cc3cc(Oc4ccccc4)ccc3N=C2N)cc1 [Compound 156]	<30	40			
CCCCc1ccc(C(=O)NCCN2Cc3cc(Oc4ccccc4)ccc3N=C2N)cc1 [Compound 157]	<30	50			
CN(C(=O)c1cccc(CN2Cc3cc(-c4cn[nH]c4)ccc3N=C2N)c1)C1CCCCC1 [Compound 161]	<30		<30	<30	
CN(C(=O)c1cccc(CN2Cc3cc(-c4ccc(C(N)=O)cc4)ccc3N=C2N)c1)C1CCCCC1 [Compound 162]	<30		<30	<30	
CN(C(=O)c1cccc(CN2Cc3cc(-c4cccc(C(=O)O)c4)ccc3N=C2N)c1)C1CCCCC1 [Compound 163]	<30		<30	33	
CC(=O)Nc1cccc(-c2ccc3c(c2)CN(Cc2cccc(C(=O)N(C)C4CCCCC4)c2)C(N)=N3)c1 [Compound 166]	74		<30	37	
CN(C(=O)c1cccc(CN2Cc3cc(-c4ccncc4)ccc3N=C2N)c1)C1CCCCC1 [Compound 168]	<30		<30	<30	
CN(C(=O)c1cccc(CN2Cc3cc(-c4cccc(-c5ccccc5)c4)ccc3N=C2N)c1)C1CCCCC1 [Compound 171]	42		<30	31	
CN(C)Cc1ccccc1-c1ccc2c(c1)CN(Cc1cccc(C(=O)N(C)C3CCCCC3)c1)C(N)=N2 [Compound 172]	<30		<30	<30	
CN(C(=O)c1cccc(CN2Cc3cc(-c4ccc5[nH]ccc5c4)ccc3N=C2N)c1)C1CCCCC1 [Compound 175]	37		<30	<30	
NC1=Nc2ccc(Oc3ccccc3)cc2CN1CCC(=O)N(C1CCCCC1)C1CCCCC1 [Compound 180]	77		<30	<30	
CC(C)N(C(=O)CCN1Cc2cc(Oc3ccccc3)ccc2N=C1N)C(C)C [Compound 181]	32		<30	<30	
CCCCCC1CCC(C(=O)NCCN2Cc3cc(Oc4ccccc4)ccc3N=C2N)CC1 (stereo not drawn) [Compound 182]	38		<30	<30	
CC(C)(C)C1CCC(C(=O)NCCN2Cc3cc(Oc4ccccc4)ccc3N=C2N)CC1 (stereo not drawn) [Compound 184]	31		<30	<30	
CC1CCC(N(C(=O)c2cccc(CN3Cc4cc(Oc5ccccc5)ccc4N=C3N)c2)C2CCC(C)CC2)CC1 (stereo not drawn) [Compound 187]	39		<30	<30	
NC1=Nc2ccc(Oc3ccccc3)cc2CN1Cc1cccc(C(=O)NCCc2ccc(S(N)(=O)=O)cc2)c1 [Compound 188]	<30		<30	<30	
CN(C)c1ccc(C(=O)NCCN2Cc3cc(Oc4ccccc4)ccc3N=C2N)cc1 [Compound 189]	<30		<30	<30	
